In US20200338045A1, “ISOINDOLINE COMPOSITIONS AND METHODS FOR TREATING NEURODEGENERATIVE DISEASE” (priority 2017, published 2020):

Tested on: CSF proteins
Assay: LC/MSMS protein expression in CSF (COG0102)
Type: in vivo, human
Description: Plasma and CSF protein expression were measured by LC/MSMS in samples drawn prior to dosing (Day 0) and at end of dosing (Day 28) and were compared within each patient and between dosing groups.
This trial (ClinicalTrials.gov NCT02907567) was a randomized, double-blind, placebo-controlled clinical trial in mild to moderate Alzheimer's patients (MMSE 18-26) (See FIG. 1 for clinical trial design). The trial was conducted at six sites in Australia. Patients were randomized into placebo (n=5) or CT1812-treated groups: 90 mg (n=4), 280 mg (n=5) or 560 mg (n=5) and treated once daily for 28 days. Clinical chemistry was done at Sydpath (Sydney, AU). Pharmacokinetics were done at CPR Pharma Services (Adelaide, AU). Cerebrospinal fluid samples were taken at screening and day 21-28 of treatment and aliquoted. Plasma samples were taken at screening or Day 1 (one sample) and day 14-28, then spun down to separate plasma and aliquoted. One set of CSF samples was analyzed for Alzheimer's disease biomarkers; protein measurements (Aβ42, A1340, total tau, tau phosphorylated at threonine 181 (phosphorylated tau), NFL and neurogranin) were performed using commercially available ELISA assays from Fujirebio according to the manufacturer's instructions (INNOTEST β-AMYLOID(1-42), INNOTEST β-AMYLOID(1-40), INNOTEST hTau Ag, INNOTEST PHOSPHO-TAU(181P), Uman Diagnostics NFL assay). Neurogranin was measured with a sandwich ELISA method using antibodies Ng2 and Ng22 developed at the University of Gotteborg (Kvartsberg et al. 2015). Identical aliquots of CSF, and plasma were analyzed for protein expression changes via LC/MSMS at Caprion (see below).
Matched screening and day 28 plasma and CSF samples were analyzed by LC/MSMS at Caprion Biosciences Inc. Plasma was depleted of high and medium abundance proteins using a commercial immunoaffinity column, IgY14-Supermix (Sigma). CSF was depleted of only 14 high abundance proteins using MARS-14 (Agilent). All samples were digested with trypsin and plasma samples were fractionated by strong cation exchange chromatography (3 fractions). Both CSF and plasma samples were analyzed using a NanoAcquity UPLC coupled to a Q Exactive MS. […] The 12 most intense peaks per survey scan with charge states 2-8 fragmented and scanned with a mass range from 200 to 2000 m/z at a resolution of 17,500. Raw spectrometer data files for each LC-MS run were aligned independently using Elucidator software (Rosetta Biosoftware). The MS/MS spectra were matched to corresponding peptide sequences found in the Uniprot Human protein database (January 2017) using Mascot software, allowing for up to 2 missed cleavages, a peptide tolerance of 20 ppm, and an MS/MS tolerance of 0.05 Da. Outlier detection was performed by determining the average log-intensity of all isotope groups (IG) over injection order for all samples. Samples with an average value greater than 2 standard deviations from the mean were flagged for investigation. Following data transformation and normalization, expression analysis of the identified isotope groups was performed and the statistical significance of each comparison was assessed with a parametric, linear mixed model (LMM) and a non-parametric Wilcoxon ranked test (ranked p-values). Expression analysis was also performed at the peptide and protein levels, which used the same methodology as above, but applied to peptide/protein intensities, derived by rolling-up the corresponding isotope group intensities. Isotope groups not detected in at least half of the samples in either of the two groups being compared were not used for the roll-up.
Table 5 lists 30 proteins that were detected with at least 20% change in placebo vs. treated 28 days vs screening. The following values are reported for each statistical analysis performed: FC: Fold change calculated from the protein normalized intensity. FC>10 or <0.1 are unusually large and may be artifacts. […]

[1] = 28 days vs screening, fold change

SMILES: CC(C)(C)Oc1cc(CCC(C)(C)N2Cc3ccc(S(C)(=O)=O)cc3C2)ccc1O [CT1812]
- Afamin, % change treated vs placebo: −19%
- B3GNT9, % change treated vs placebo: 65%
- CD14, % change treated vs placebo: 20%
- Contactin 1, % change treated vs placebo: −23%
- EphA4, % change treated vs placebo: −7%
- FLNA, % change treated vs placebo: −51%
- PDIA1, % change treated vs placebo: 21%
- PDIA6, % change treated vs placebo: 44%
- ROBO4, % change treated vs placebo: 62%
- SERPINA4, % change treated vs placebo: −26%
- Synaptotagmin, % change treated vs placebo: −59%
- Tenascin C, % change treated vs placebo: −10%
- Synaptotagmin-1 expression decreased, CT1812-treated vs. placebo (28 days): 63%
- AFM, FC (Treated) [1]: 0.94
- ANGPTL2, FC (Treated) [1]: 0.80
- CAMK2D, FC (Treated) [1]: 1.04
- CD14, FC (Treated) [1]: 1.18
- CNTN1, FC (Treated) [1]: 0.97
- EFNB1, FC (Treated) [1]: 0.97
- EPHA4, FC (Treated) [1]: 0.94
- FGFR3, FC (Treated) [1]: 1.12
- GMFB, FC (Treated) [1]: 1.04
- GNPTG, FC (Treated) [1]: 1.18
- HLA-H, FC (Treated) [1]: 1.22
- ICAM2, FC (Treated) [1]: 1.11
- LILRB4, FC (Treated) [1]: 1.11
- MBL2, FC (Treated) [1]: 0.75
- MDGA2, FC (Treated) [1]: 1.01
- NPPC, FC (Treated) [1]: 0.90
- P4HB, FC (Treated) [1]: 1.10
- PDGFA, FC (Treated) [1]: 1.15
- PDIA6, FC (Treated) [1]: 1.15
- RBP4, FC (Treated) [1]: 0.82
- ROBO1, FC (Treated) [1]: 0.96
- ROBO4, FC (Treated) [1]: 1.22
- SAA4, FC (Treated) [1]: 1.17
- SEMA3F, FC (Treated) [1]: 1.40
- SERPINA4, FC (Treated) [1]: 0.88
- SMPDL3B, FC (Treated) [1]: 0.97
- SYT1, FC (Treated) [1]: 0.78
- TNC, FC (Treated) [1]: 1.04
- TPI1, FC (Treated) [1]: 0.90
- YWHAB, FC (Treated) [1]: 0.90
- AFM, FC (Treated vs. Placebo) (28 days, fold change): 0.84
- ANGPTL2, FC (Treated vs. Placebo) (28 days, fold change): 0.69
- CAMK2D, FC (Treated vs. Placebo) (28 days, fold change): 1.22
- CD14, FC (Treated vs. Placebo) (28 days, fold change): 1.20
- CNTN1, FC (Treated vs. Placebo) (28 days, fold change): 0.81
- EFNB1, FC (Treated vs. Placebo) (28 days, fold change): 0.93
- EPHA4, FC (Treated vs. Placebo) (28 days, fold change): 0.93
- FGFR3, FC (Treated vs. Placebo) (28 days, fold change): 1.83
- GMFB, FC (Treated vs. Placebo) (28 days, fold change): 1.41
- GNPTG, FC (Treated vs. Placebo) (28 days, fold change): 1.26
- HLA-H, FC (Treated vs. Placebo) (28 days, fold change): 1.37
- ICAM2, FC (Treated vs. Placebo) (28 days, fold change): 1.23
- LILRB4, FC (Treated vs. Placebo) (28 days, fold change): 1.25
- MDGA2, FC (Treated vs. Placebo) (28 days, fold change): 0.71
- NPPC, FC (Treated vs. Placebo) (28 days, fold change): 0.91
- P4HB, FC (Treated vs. Placebo) (28 days, fold change): 1.21
- PDGFA, FC (Treated vs. Placebo) (28 days, fold change): 1.27
- PDIA6, FC (Treated vs. Placebo) (28 days, fold change): 1.44
- RBP4, FC (Treated vs. Placebo) (28 days, fold change): 0.81
- ROBO1, FC (Treated vs. Placebo) (28 days, fold change): 0.82
- ROBO4, FC (Treated vs. Placebo) (28 days, fold change): 1.62
- SAA4, FC (Treated vs. Placebo) (28 days, fold change): 1.35
- SEMA3F, FC (Treated vs. Placebo) (28 days, fold change): 1.58
- SERPINA4, FC (Treated vs. Placebo) (28 days, fold change): 0.79
- SMPDL3B, FC (Treated vs. Placebo) (28 days, fold change): 1.24
- SYT1, FC (Treated vs. Placebo) (28 days, fold change): 0.63
- TNC, FC (Treated vs. Placebo) (28 days, fold change): 0.91
- TPI1, FC (Treated vs. Placebo) (28 days, fold change): 0.87
- YWHAB, FC (Treated vs. Placebo) (28 days, fold change): 0.81
- MBL2, FC (Treated vs. Placebo) (28 days, fold change, FC>10 may be artifacts): >10
- Afamin, With CT1812 (direction of change): significantly decreased and ↓*
- B3GNT9, With CT1812 (direction of change): dose dependently increased and ↑
- CD14, With CT1812 (direction of change): significantly increased and ↑*
- Contactin 1, With CT1812 (direction of change): significantly reduced and ↓*
- EphA4, With CT1812 (direction of change): ↓*
- FLNA, With CT1812 (direction of change): trend for reduction and ↓
- PDIA1, With CT1812 (direction of change): significantly increased and ↑*
- PDIA6, With CT1812 (direction of change): significantly increased and ↑*
- ROBO4, With CT1812 (direction of change): ↑*
- SERPINA4, With CT1812 (direction of change): significantly reduced and ↓*
- Synaptotagmin, With CT1812 (direction of change): significantly decreased and reduction and decreased and ↓*
- Tenascin C, With CT1812 (direction of change): ↓*
- Afamin, % change baseline treated (treated group vs baseline): −7%
- B3GNT9, % change baseline treated (treated group vs baseline): 55%
- CD14, % change baseline treated (treated group vs baseline): 18%
- Contactin 1, % change baseline treated (treated group vs baseline): −3%
- EphA4, % change baseline treated (treated group vs baseline): −6%
- FLNA, % change baseline treated (treated group vs baseline): −26%
- PDIA1, % change baseline treated (treated group vs baseline): 10%
- PDIA6, % change baseline treated (treated group vs baseline): 15%
- ROBO4, % change baseline treated (treated group vs baseline): 22%
- SERPINA4, % change baseline treated (treated group vs baseline): −13%
- Synaptotagmin, % change baseline treated (treated group vs baseline): −28%
- Tenascin C, % change baseline treated (treated group vs baseline): 4%
